Test results published in article PMC7859889 (ACS chemical biology, 2020).
“Also recorded” adds a separate entry of the source. Read-outs that look alike come from different tables or passages of the source.

Assays:
[1] = system: HLA-B HiBit (MHC class I); experiment: HLA-B HiBit luminescent reporter assay; details: for HiBit Efficacy: 4.0 ng/ml IFN-β, IFN-β = 0%, DMSO alone = −100% activity; for Emax: Homo sapiens, 24 h, read-out: HiBit Efficacy
HLA-B mRNA = experiment: HLA-B RT-qPCR tertiary assay; format: cell-based, human; details: for IC50: read-out: RT-qPCR IC50; for Emax: read-out: RT-qPCR Efficacy
HLA-B HiBit cells = experiment: CellTiter-Glo; details: for CTG Efficacy: IFN-β = 0%, 92 uM Digitonin = −100% activity; for IC50: read-out: CTG IC50
C25cl48 cells = experiment: IF cell count cytotoxicity; format: cell-based, human; details: for Cell count Curve class: IF cell count cytotoxicity, C25cl48 cells
ISG15 = experiment: Multi Gene RT-qPCR, ISG15; format: cell-based, human; details: compared to IFN-β treated cells; 4.0 ng/ml IFN-β plus 50 uM compound, 24 hrs
[2] = system: type I IFN – MHC class I pathway; experiment: Average / all assays; format: cell-based, human; details: for IC50: read-out: Average IC50
IFIT1 = experiment: Multi Gene RT-qPCR, IFIT1; format: cell-based, human; details: compared to IFN-β treated cells; 4.0 ng/ml IFN-β plus 50 uM compound, 24 hrs
HLA and ISG genes = experiment: Multi Gene RT-qPCR, gene panel; format: cell-based, human; details: 4.0 ng/ml IFN-β plus 50 uM compound, 24 hrs; for effect on HLA and ISG gene expression (in words): C25cl48 cells
HLA-ABC = HLA-ABC immunofluorescence; format: cell-based, human; details: for Emax / IC50: Homo sapiens; for Emax: read-out: Immunofluorescence Efficacy; for IC50: read-out: Immunofluorescence IC50
STAT1 = experiment: Western blot, STAT1 phosphorylation; format: cell-based, human; details: C25cl48 cells, 0.5 hrs, 4.0 ng/ml IFN-β plus IC95 concentration of compound
HLA-C = experiment: Multi Gene RT-qPCR, HLA-C; format: cell-based, human; details: compared to IFN-β treated cells; 4.0 ng/ml IFN-β plus 50 uM compound, 24 hrs
MX1 = experiment: Multi Gene RT-qPCR, MX1; format: cell-based, human; details: compared to IFN-β treated cells; 4.0 ng/ml IFN-β plus 50 uM compound, 24 hrs
[3] = cited from earlier work
[4] = HLA-B HiBit clone AB-7 cells, 24 hours
[5] = HLA-B mRNA, C25cl48 cells, 4.0 ng/mL IFN-β
[6] = cytotoxicity, 4.0 ng/ml IFN-β, 24 hours
[7] = average of HiBit, Immunofluorescence, RT-qPCR

SMILES | HiBit Efficacy [1, 4] [%] | CTG Curve class (HLA-B HiBit cells; [6]) | CTG Efficacy (HLA-B HiBit cells; cytotoxicity) [%] | Cell count Curve class (C25cl48 cells) | increase of ISG15 mRNA (ISG15) | decrease of IFIT1 mRNA (IFIT1) | efficacy in reducing all HLA and ISG genes (HLA and ISG genes) | effect on HLA and ISG gene expression (in words) (HLA and ISG genes) | Emax (HLA-B mRNA; Homo sapiens) [%] | Emax (HLA-ABC) [%] | Emax [1] [%] | IC50 (HLA-B mRNA; Homo sapiens) [nM] | IC50 ([2]; Homo sapiens) [nM] | IC50 (HLA-ABC) [nM] | also measured
Cc1sc2c(c1C)C(c1ccc(Cl)cc1)=N[C@@H](CC(=O)Nc1ccc(OCCOCCOCCOCCNc3cccc4c3C(=O)N(C3CCC(=O)NC3=O)C4=O)cc1)c1nnc(C)n1-2 (some centres unmarked) [ARV-825] | 71 | −1b | 8 | 4 | 2.8 fold | 84% | low efficacy | reduced IFIT1 while increasing ISG15 |  |  |  |  |  |  | IC50 ([1]; read-out: HiBit IC50, HLA-B HiBit clone AB-7 cells, 4.0 ng/ml IFN-β plus compound titration, 24 hours): 97 nM; RT-qPCR Curve class (HLA-B mRNA; [5]): −1b; RT-qPCR Efficacy (HLA-B mRNA; [5]): 43%; IC50 (HLA-B mRNA; [5]): 65 nM; IC50 (HLA-B HiBit cells; [6]): 53 nM; Average Curve class [2, 7]: −1b; Average Efficacy [2, 7]: 65%; IC50 [2, 7]: 84 nM; Immunofluorescence Efficacy (HLA-ABC; HLA-ABC+ C25cl48 cells, IFN-β-stimulated, prednisolone acetate used for IF): 82%
CCS(=O)(=O)N1CC(CC#N)(n2cc(-c3ncnc4[nH]ccc34)cn2)C1 [Baricitinib, baricitinib] | 100 | 4 |  | 4 |  |  |  |  | 100 | 100 |  |  |  |  | phosphorylation of STAT1 (STAT1): prevented phosphorylation of STAT1
COc1ccc(-c2nc(N3CCOCC3)c3sc(CN(C)c4ncc(C(=O)NO)cn4)cc3n2)cn1 [CUDC-907] |  | −1b | 40 | −3 |  | ~ 75% | 70–80% | reduced 3 genes | 73 | 100 | 86 | 23 | 19 | 5.8 | decrease of HLA-C mRNA (HLA-C): ~ 75%; IC50 (HLA-B HiBit cells; Homo sapiens, 24 h): 3500 nM; Cell count Efficacy at highest concentration (C25cl48 cells; ( ) - efficacy at highest concentration): (10) %; decrease of MX1 mRNA (MX1): ~ 75%
CCc1cnn2c(NCc3ccc[n+]([O-])c3)cc(N3CCCC[C@H]3CCO)nc12 [Dinaciclib, dinaciclib] |  | 4 |  | 4 | ~ 3.3 fold |  |  | did not decrease any of the other genes tested; also recorded: increased HLA-C, ISG15, and MX1 | 117 | 100 | 100 |  |  |  | increase of HLA-C mRNA (HLA-C): ~ 3.3 fold; common adverse events [3]: leukopenia, thrombocytopenia, gastrointestinal symptoms, alopecia, and fatigue; increase of MX1 mRNA (MX1): ~ 3.3 fold
COc1cccc2c1C(=O)c1c(O)c3c(c(O)c1C2=O)C[C@@](O)(C(=O)CO)C[C@@H]3O[C@H]1C[C@H](N2CCO[C@H](OC)C2)[C@H](O)[C@H](C)O1 [Nemorubicin, nemorubicin] |  | 4 |  | 4 |  |  | > 99% | normalized all genes | 133 | 107 | 100 | 92 | 104 | 70 | 
